Measurements taken from patent publication US20260262643A1, “HERBICIDAL BENZOXAZINES” (FMC CORPORATION, priority 2022, published 2026).

Experiments:
barnyardgrass [1] = assay: Test C preemergence; assay type: in vivo, Echinochloa crusgalli; details: Preemergence, 1000 g ai/ha; visual rating after 10 days, 0 to 100 scale (0 no effect, 100 complete control)
Excerpt: (§1) Seeds of plant species selected from barnyardgrass (Echinochloa crusgalli), blackgrass (Alopecurus myosuroides), corn (Zea mays), foxtail, giant (giant foxtail, Setaria faberi), green foxtail (Setaria viridis), goosegrass (Eleusine indica), kochia (Bassia scoparia), oat, wild (wild oat, Avena fatua), pigweed, palmer (palmer amaranth, palmer pigweed, Amaranthus palmeri), Pigweed, Redroot (redroot pigweed, Amaranthus retroflexus), ragweed (common ragweed, Ambrosia artemisiifolia), ryegrass, Italian ([…] ryegrass, Lolium multiflorum), soybean (Glycine max), and wheat (Triticum aestivum) were planted into a blend of loam soil and sand and treated preemergence with a directed soil spray using test chemicals formulated in a non-phytotoxic solvent mixture which included a surfactant. At the same time, plants selected from these crops and weed species and also galium (catchweed bedstraw, Galium aparine) and horseweed (Erigeron canadensis) were planted in pots containing the same blend of loam soil and sand and treated with postemergence applications of test chemicals formulated in the same manner. Plants ranged in height from 2 to 10 cm and were in the one- to two-leaf stage for the postemergence treatment. Treated plants and untreated controls were maintained in a greenhouse for 10 days, after which time all treated plants were compared to untreated controls and visually evaluated for injury. Plant response ratings, summarized in Table C, are based on a 0 to 100 scale where 0 is no effect and 100 is complete control. A dash (-) response means no test result.

green foxtail [2] = assay: Test C postemergence; assay type: in vivo, Setaria viridis; details: Postemergence, 1000 g ai/ha, 10 days, visual 0 to 100 scale (0 no effect, 100 complete control)
Excerpt: as §1

green foxtail [3] = assay: Test C preemergence; assay type: in vivo, Setaria viridis; details: Preemergence, 1000 g ai/ha; visual rating after 10 days, 0 to 100 scale (0 no effect, 100 complete control)
Excerpt: as §1

ryegrass, Italian [4] = assay: Test C preemergence; assay type: in vivo, Lolium multiflorum; details: Preemergence, 1000 g ai/ha; visual rating after 10 days, 0 to 100 scale (0 no effect, 100 complete control)
Excerpt: as §1

barnyardgrass [5] = assay: Test C postemergence; assay type: in vivo, Echinochloa crusgalli; details: Postemergence, 1000 g ai/ha; 0 to 100 scale, 0 no effect, 100 complete control
Excerpt: as §1

ragweed [6] = assay: Test C postemergence; assay type: in vivo, Ambrosia artemisiifolia; details: Postemergence, 1000 g ai/ha, 10 days, visual 0 to 100 scale (0 no effect, 100 complete control)
Excerpt: as §1

kochia [7] = assay: Test C preemergence; assay type: in vivo, Bassia scoparia; details: Preemergence, 1000 g ai/ha; visual rating after 10 days, 0 to 100 scale (0 no effect, 100 complete control)
Excerpt: as §1

kochia [8] = assay: Test C postemergence; assay type: in vivo, Bassia scoparia; details: Postemergence, 1000 g ai/ha, 10 days, visual 0 to 100 scale (0 no effect, 100 complete control)
Excerpt: as §1

galium = assay: Test C postemergence; assay type: in vivo, Galium aparine; details: Postemergence, 1000 g ai/ha, 10 days, visual 0 to 100 scale (0 no effect, 100 complete control)
Excerpt: as §1

blackgrass [9] = assay: Test C postemergence; assay type: in vivo, Alopecurus myosuroides; details: Postemergence, 1000 g ai/ha, 10 days, visual 0 to 100 scale (0 no effect, 100 complete control)
Excerpt: as §1

pigweed, palmer [10] = assay: Test C preemergence; assay type: in vivo, Amaranthus palmeri; details: Preemergence, 1000 g ai/ha; visual rating after 10 days, 0 to 100 scale (0 no effect, 100 complete control)
Excerpt: as §1

pigweed, palmer [11] = assay: Test C postemergence; assay type: in vivo, Amaranthus palmeri; details: Postemergence, 1000 g ai/ha, 10 days, visual 0 to 100 scale (0 no effect, 100 complete control)
Excerpt: as §1

horseweed = assay: Test C postemergence; assay type: in vivo, Erigeron canadensis; details: Postemergence, 1000 g ai/ha, 10 days, visual 0 to 100 scale (0 no effect, 100 complete control)
Excerpt: as §1

ryegrass, Italian [12] = assay: Test C postemergence; assay type: in vivo, Lolium multiflorum; details: Postemergence, 1000 g ai/ha, 10 days, visual 0 to 100 scale (0 no effect, 100 complete control)
Excerpt: as §1

blackgrass [13] = assay: Test C preemergence; assay type: in vivo, Alopecurus myosuroides; details: Preemergence, 1000 g ai/ha; visual rating after 10 days, 0 to 100 scale (0 no effect, 100 complete control)
Excerpt: as §1

ragweed [14] = assay: Test C preemergence; assay type: in vivo, Ambrosia artemisiifolia; details: Preemergence, 1000 g ai/ha; visual rating after 10 days, 0 to 100 scale (0 no effect, 100 complete control)
Excerpt: as §1

Row | SMILES | Plant response rating, Barnyardgrass (barnyardgrass [1]) | Plant response rating, Foxtail, Green (green foxtail [2]) | Plant response rating, Foxtail, Green (green foxtail [3]) | Plant response rating, Ryegrass, Italian (ryegrass, Italian [4]) | Plant response rating, Barnyardgrass (barnyardgrass [5]) | Plant response rating, Ragweed (ragweed [6]) | Plant response rating, Kochia (kochia [7]) | Plant response rating, Kochia (kochia [8]) | Plant response rating, Galium (galium) | Plant response rating, Blackgrass (blackgrass [9]) | Plant response rating, Pigweed, Palmer (pigweed, palmer [10]) | Plant response rating, Pigweed, Palmer (pigweed, palmer [11]) | Plant response rating, Horseweed (horseweed) | Plant response rating, Ryegrass, Italian (ryegrass, Italian [12]) | Plant response rating, Blackgrass (blackgrass [13]) | Plant response rating, Ragweed (ragweed [14])
1 | Cc1csc(-c2cccc(C(=O)N3C[C@H](C)Oc4c(C)cccc43)c2)c1 [Compound 245] | 20 | 0 | 30 | 60 | 0 | 10 | 0 | 0 | 0 | 0 | 20 | 0 | 30 | 0 | 0 | 
2 | C[C@H]1CN(C(=O)c2cccc(-n3cccc3)c2)c2cccc(Cl)c2O1 [Compound 222] | 50 | 40 | 100 | 70 | 20 | 0 | 20 | 60 |  | 50 | 50 | 60 | 0 | 50 | 70 | 0
3 | Cc1cc(-c2cccc(C(=O)N3C[C@H](C)Oc4c(C)cccc43)c2)cs1 [Compound 246] | 0 | 0 | 0 | 30 | 0 | 30 | 0 | 20 | 0 | 0 | 0 | 0 | 30 | 0 | 0 | 
4 | Cc1cccc2c1O[C@@H](C)CN2C(=O)c1cccc(-c2cn(C)nn2)c1 [Compound 247] | 0 | 30 | 0 | 30 | 10 | 0 | 0 | 0 | 20 | 0 |  | 10 | 20 | 0 | 0 | 0
